The first test deals with T1, cloned human glucagon receptor (Homo sapiens, UniProt P47871).
T1 construct: expressed in transfected cells; cell membranes used
T1 sequence (P47871 26-477): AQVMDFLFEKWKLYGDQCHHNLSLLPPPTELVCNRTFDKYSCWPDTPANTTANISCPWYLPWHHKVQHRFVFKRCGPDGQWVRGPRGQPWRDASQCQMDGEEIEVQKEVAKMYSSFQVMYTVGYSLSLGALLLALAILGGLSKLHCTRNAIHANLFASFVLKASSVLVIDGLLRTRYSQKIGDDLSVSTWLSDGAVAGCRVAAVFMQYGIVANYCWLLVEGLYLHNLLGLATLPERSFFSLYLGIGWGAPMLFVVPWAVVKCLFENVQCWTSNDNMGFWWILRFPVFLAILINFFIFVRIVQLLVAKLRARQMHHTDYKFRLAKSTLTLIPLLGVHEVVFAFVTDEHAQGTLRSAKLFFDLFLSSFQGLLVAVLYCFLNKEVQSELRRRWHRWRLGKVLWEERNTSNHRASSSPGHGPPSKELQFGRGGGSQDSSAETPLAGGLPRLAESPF
In words: Glucagon Receptor Binding Assay (125I-Glucagon, SPA, CHO cell membranes). As to conditions: inhibition of 125I-Glucagon binding to membranes of CHO cells expressing human glucagon receptor; more active isomer of indicated compounds. On the procedure: Glucagon Receptor Binding Assay
A stable CHO (Chinese hamster ovary) cell line expressing cloned human glucagon receptor was maintained as described (Chiechi, et. al. J Biol Chem 272, 7765-9(1997); Cascieri, et. al. J Biol Chem 274, 8694-7(1999)). To determine antagonistic binding affinity of compounds, 0.001-0.003 mg of cell membranes from these cells were pre-incubated with 0.100 mg WGA-coated PVT SPA beads (Amersham) for 20 minutes at room temperature in 25 μL of a buffer containing 50 mM Tris-HCl (pH 7.5), 5 mM MgCl2, 2 mM EDTA, 0.1% BSA and 3% glycerol in Costar 384 well plates with clear bottoms (#3706). Next, 25 μL of ^125I-Glucagon (New England Nuclear, MA) (1×10^−14 mol per well) and either 1 μL solutions of test compounds or 0.001 mM unlabeled glucagon or DMSO were added and mixed. After 4-12 hours incubation at room temperature, the radioactivity bound to the cell membranes was determined in a radioactive emission detection counter (Wallac-Microbeta). Data were analyzed using the Data Analyzer software program of Merck & Co., Inc. The IC50 values were calculated using non-linear regression analysis assuming single-site competition.
As usually defined, the IC50 is the midpoint of a concentration-inhibition curve. Higher therefore signals a need for much substance. In the case of `CCCC(c1ccc(C(=O)NCCC(=O)O)cc1)C(C(=O)N1CCc2cc(C(F)(F)F)ccc2C1)c1ccc(Cl)cc1` (single isomer, unassigned) [Example 80], the IC50 is 0.9 nM.
`CCCC(c1ccc(C(=O)NCC(O)C(=O)O)cc1)C(C(=O)N1Cc2ccc(OC(F)(F)F)cc2C1)c1ccc(Cl)cc1` (mixture of isomers) [Example 99] had an IC50 of 1.1 nM.
Still for that read-out and setting: the result for `CCCC(c1ccc(C(=O)NCCC(=O)O)cc1)C(C(=O)N1CCc2cc(-c3ccc(Cl)cc3)ccc2C1)c1ccc(Cl)cc1` (single isomer, unassigned) [Example 69] reads 1 nM; that for `CCCC(c1ccc(C(=O)NCCC(=O)O)cc1)C(C(=O)N1Cc2ccc(C)cc2C1)c1ccc(Cl)cc1` (stereo not shown) [Example 37], 0.6 nM.
Same read-out and setting: the result for `CCCC(c1ccc(C(=O)NCCC(=O)O)cc1)C(C(=O)N1Cc2ccc(-c3ccc(OC)nc3)cc2C1)c1ccc(C(F)(F)F)cc1` (stereo not shown) [Example 8] reads 0.4 nM; that for `CCCC(c1ccc(C(=O)NCCC(=O)O)cc1)C(C(=O)N1Cc2ccc(-c3ccnc(C)c3)cc2C1)c1ccc(Cl)cc1` (stereo not shown) [Example 30], 0.6 nM; that for `CCCC(c1ccc(C(=O)NCCC(=O)O)cc1)C(C(=O)N1Cc2cc(Cl)cc(Cl)c2C1)c1ccc(Cl)cc1` (single isomer, unassigned) [Example 55], 0.6 nM.
Still for that read-out and setting: the figure for `CCCC(c1ccc(C(=O)NCCC(=O)O)cc1)C(C(=O)N1Cc2ccc(-c3cc(OC)ccn3)cc2C1)c1ccc(Cl)cc1` (stereo not shown) [Example 13] is 2 nM; for `CCCC(c1ccc(C(=O)NCCS(=O)(=O)O)cc1)C(C(=O)N1Cc2ccc(C(F)(F)F)cc2C1)c1ccc(Cl)cc1` (stereo not shown) [Example 107] it is 1.1 nM; for `CCCC(c1ccc(C(=O)NCCC(=O)O)cc1)C(C(=O)N1CCc2cc(-c3ccc(C)cc3)ccc2C1)c1ccc(Cl)cc1` (single isomer, unassigned) [Example 70] it is 1.6 nM.
`CCCC(c1ccc(C(=O)NCCC(=O)O)cc1)C(C(=O)N1Cc2ccc(C#N)cc2C1)c1ccc(Cl)cc1` (stereo not shown) [Example 36] had an IC50 of 5.5 nM.
`CCCC(c1ccc(C(=O)NCCC(=O)O)cc1)C(C(=O)N1Cc2ccc(-c3ccc(OC)nc3)cc2C1)c1cc(F)cc(F)c1` (stereo not shown) [Example 9] returned an IC50 of 0.4 nM.
For `CCCC(c1ccc(C(=O)NCCC(=O)O)cc1)C(C(=O)N1Cc2ccc(-c3ccc(OC)nc3)cc2C1)c1ccc(Cl)cc1` (stereo not shown) [Example 41], the concentration for half-maximal inhibition (IC50) worked out at 0.6 nM.
Still for that read-out and setting: the figure for `CCCC(c1ccc(C(=O)NCCC(=O)O)cc1)C(C(=O)N1Cc2ccc(C(F)(F)F)cc2C1)c1ccc(C(F)(F)F)cc1` (stereo not shown) [Example 6] is 0.4 nM.
The molecule `CCCC(c1ccc(C(=O)NCCC(=O)O)cc1)C(C(=O)N1CCc2cc(C)ccc2C1)c1ccc(Cl)cc1` (single isomer, unassigned) [Example 82] yielded an IC50 of 0.4 nM.
`CCCC(c1ccc(C(=O)NCCC(=O)O)cc1)C(C(=O)N1Cc2cccc(C)c2C1)c1ccc(Cl)cc1` (single isomer, unassigned) [Example 49]: the IC50 stood at 0.1 nM.
Same read-out and setting: the figure for `CCCC(c1ccc(C(=O)NCCC(=O)O)cc1)C(C(=O)N1CCc2ccc(F)cc2C1)c1ccc(Cl)cc1` (single isomer, unassigned) [Example 93] is 9.8 nM.
Same read-out and setting: the figure for `CCCC(c1ccc(C(=O)Nc2nnn[nH]2)cc1)C(C(=O)N1Cc2ccc(OC(F)(F)F)cc2C1)c1ccc(Cl)cc1` (stereo not shown) [Example 5] is 2.2 nM.
The molecule `CCCC(c1ccc(C(=O)NCCC(=O)O)cc1)C(C(=O)N1CCc2cc(OC)ccc2C1)c1ccc(Cl)cc1` (single isomer, unassigned) [Example 79] returned an IC50 of 1.5 nM.
Same read-out and setting: the figure for `CCCC(c1ccc(C(=O)NC(C)CC(=O)O)cc1)C(C(=O)N1Cc2ccc(OC(F)(F)F)cc2C1)c1ccc(Cl)cc1` (mixture of isomers) [Example 101] is 5.9 nM.
Same read-out and setting: the result for `CCCC(c1ccc(C(=O)NCCC(=O)O)cc1)C(C(=O)N1CCc2ccc(-c3ccc(C)cc3)cc2C1)c1ccc(Cl)cc1` (single isomer, unassigned) [Example 88] reads 3.2 nM; that for `CCCC(c1ccc(C(=O)NCCC(=O)O)cc1)C(C(=O)N1CCc2ccccc21)c1ccc(Cl)cc1` (racemic) [Example 3, N-(4-{1-[1-(4-chlorophenyl)-2-(2,3-dihydro-1H-indol-1-yl)-2-oxoethyl]butyl}benzoyl)-β-alanine], 10 nM.
The same measure, in the same setting: the result for `CCCC(c1ccc(C(=O)NCCC(=O)O)cc1)C(C(=O)N1CCCc2ccccc21)c1ccc(Cl)cc1` (single isomer, unassigned) [Example 2, N-(4-{1-[1-(4-chlorophenyl)-2-(3,4-dihydroquinolin-1(2H)-yl)-2-oxoethyl]butyl}benzoyl)-β-alanine] reads 48 nM; that for `CCCC(c1ccc(C(=O)NCCC(=O)O)cc1)C(C(=O)N1Cc2cccc(C(F)(F)F)c2C1)c1ccc(Cl)cc1` (single isomer, unassigned) [Example 1, N-[4-(1-{1-(4-chlorophenyl)-2-oxo-2-[4-(trifluoromethyl)-1,3-dihydro-2H-isoindol-2-yl]ethyl}butyl)benzoyl]-β-alanine], 0.8 nM.
In turn, `CCCC(c1ccc(C(=O)NCCC(=O)O)cc1)C(C(=O)N1CCc2cc(-c3ccc(C)cc3)ccc21)c1ccc(Cl)cc1` (stereo not shown) [Example 63] yielded an IC50 of 0.2 nM.
Still for that read-out and setting: the result for `CCCC(c1ccc(C(=O)NCCC(=O)O)cc1)C(C(=O)N1Cc2ccc(-c3cccnc3OC)cc2C1)c1ccc(Cl)cc1` (single isomer, unassigned) [Example 4, N-[4-(1-{1-(4-chlorophenyl)-2-[5-(2-methoxypyridin-3-yl)-1,3-dihydro-2H-isoindol2-yl]-2-oxoethyl}butyl)benzoyl]-β-alanine] reads 0.5 nM.

The test is the same for the next values; noted with them: racemic diastereomers of Example 5 separated by reverse-phase HPLC; assay not given.
On to `CCCC(c1ccc(C(=O)Nc2nnn[nH]2)cc1)C(C(=O)N1Cc2ccc(OC(F)(F)F)cc2C1)c1ccc(Cl)cc1` (single isomer, unassigned) [Example 5 Minor isomer], for which the “potency as glucagon receptor antagonist relative to the other diastereomer” value was “less potent”.
`CCCC(c1ccc(C(=O)Nc2nnn[nH]2)cc1)C(C(=O)N1Cc2ccc(OC(F)(F)F)cc2C1)c1ccc(Cl)cc1` (stereo not shown) [Example 5]: the “potency as glucagon receptor antagonist relative to the other diastereomer” value is given as “more potent”.

The values above are taken from patent US8324384B2, “Glucagon receptor antagonist compounds, compositions containing such compounds and methods of use” (Merck Sharp & Dohme Corp., priority 2010, dated 2012).
